# Values of other authors, collected in patent publication US20210195875A1 (SMC GLOBAL ASSET, INC., priority 2016, published 2021).
# “Also recorded” adds a separate entry of the source.
# Legend:
# mice = settings: icv STZ alone
SMILES,toxicity in rat primary cultured cells (dopaminergic neuron),aggregation of a pathologic protein such as amyloid and tau (mice),inflammation and neural function disorder (mice; compared with a gene modified model)
"Cn1c(N)nc2ncc(-c3ccccc3)cc21 [PhIP, 2-amino-1-methyl-6-phenyl-1H-imidazo[4,5-b] pyridine]",toxicity in a dopaminergic neuron selective manner; also recorded: toxicity in a dopamine nerve selective manner,,
"CN(N=O)C(=O)N[C@H]1C(O)O[C@H](CO)[C@@H](O)[C@@H]1O (mixture of isomers) [icv STZ, streptozotocin]",,no aggregation of a pathologic protein,intense inflammation and neural function disorder
